Experimental findings from paper PMC5832243, “The importance of negative determinants as modulators of CK2 targeting. The lesson of Akt2 S131” (PLoS ONE, 2018) are described below.

Assay type in all cases: biochemical
One test deals with T1, recombinant CK2 α2β2 (Homo sapiens, UniProt P67870+P68400).
T1 construct: made in house
As to the kind of experiment: CK2 kinase assay, phosphorylation of synthetic peptides (33P, phosphocellulose filters). Conditions: for Effect of residue replacement in the Akt2 peptide on phosphorylation by CK2 (in words): 10 min with CK2, % of cpm of Akt1 wt peptide, means of 4 experiments (Fig 2A); for Phosphorylation by CK2: summary class of level of phosphorylation by CK2 (Table 4); for Phosphorylation by CK2, time course (in words): 0-120 min incubation with CK2 (Fig 1A). How it is done:
Recombinant CK2α and CK2 α2β2 were expressed, purified and kindly donated by Dr. Stefania Sarno (Padova, Italy) and Andrea Venerando (Padova, Italy).
Phosphorylation of synthetic peptides was performed with recombinant CK2 α2β2 (0.025 μg) incubated at 30°C in a final volume of 20 μl containing 50 mM Tris/HCl (pH 7.5), 100 mM NaCl, 10 mM MgCl2, the indicated concentrations of peptides, and 20 μM [γ^33P-ATP] (5000–10000 cpm/pmol). Assays were stopped by spotting onto phosphocellulose filters. Filters were washed four times in 0.5% orthophosphoric acid before counting.

Test [1] relates to Recombinant human PLK3-GST. As to the kind of experiment: PLK3 kinase assay on substrate peptides (33P, phosphocellulose filters). Conditions: 1mM peptide, 1.5 μg PLK3, 10 min, 37°C, 20 μM [γ-33P]ATP; range according to the specific radioactivity; no-peptide control 2800-9000 cpm. How it is done: Recombinant human PLK3-GST (Polo-like kinase3 - Glutathione S-transferase), cloned in PGEX-4T1 vector, was produced in BL21 cells and purified by glutathione-Sepharose affinity chromatography, eluted by an elution buffer composed of 50mM Hepes, pH 8.0 and 20mM reduced glutathione. Purity was assessed by SDS-PAGE and Comassie blue staining.
1.5 μg of purified recombinant-PLK3 were incubated with the substrate peptides for 10 min at 37°C in 20 μl of kinase assay buffer containing 20 mM Tris-HCl pH 7.5, 10 mM MgCl2, 5mM DTT (dithiothreitol), 20 μM [γ-^33P]ATP (2000-6000 cpm/pmol). Assays were stopped by spotting onto phosphocellulose filters. Filters were washed four times in 0.5% orthophosphoric acid before scintillation counting.

In the next test the test system is CK2. Put plainly: Phospho-aminoacid determination after CK2 phosphorylation (acid hydrolysis, high-voltage paper electrophoresis). Conditions: 2 mM peptide, 20 or 120 min with CK2; only faint traces of phospho-threonine (Fig 2C). How it is done:
For the identification of the amino acids phosphorylated by CK2 in Akt2 peptide, after phosphorylation samples were hydrolyzed by incubation for 4 h at 110°C in 6 N HCl, then subjected to high-voltage paper electrophoresis at pH 1.9 for 2.5 h, in the presence of nonradioactive phospho-amino acids, as migration reference. Radioactivity was detected by digital autoradiography (Cyclone plus storage phosphor system, PerkinElmer), while migration of standard references was detected by ninhydrin staining.

T1 sequence (P68400 whole entry): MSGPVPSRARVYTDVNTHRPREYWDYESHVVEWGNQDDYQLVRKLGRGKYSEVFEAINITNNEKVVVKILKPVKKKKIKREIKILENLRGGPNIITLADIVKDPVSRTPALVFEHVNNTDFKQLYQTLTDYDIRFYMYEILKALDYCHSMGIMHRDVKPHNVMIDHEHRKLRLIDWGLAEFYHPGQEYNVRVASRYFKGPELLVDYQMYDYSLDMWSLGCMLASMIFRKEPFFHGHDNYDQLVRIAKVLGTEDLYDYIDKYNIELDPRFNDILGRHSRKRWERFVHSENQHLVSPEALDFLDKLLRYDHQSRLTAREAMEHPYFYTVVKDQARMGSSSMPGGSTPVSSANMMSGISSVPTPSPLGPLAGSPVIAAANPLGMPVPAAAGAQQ
T1 sequence (P67870 whole entry partner): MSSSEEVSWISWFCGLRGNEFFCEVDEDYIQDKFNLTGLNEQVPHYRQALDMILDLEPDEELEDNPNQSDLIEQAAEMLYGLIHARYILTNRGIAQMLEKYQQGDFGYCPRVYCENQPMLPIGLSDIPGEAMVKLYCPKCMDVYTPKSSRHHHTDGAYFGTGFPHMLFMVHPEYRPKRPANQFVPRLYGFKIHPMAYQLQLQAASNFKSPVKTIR

In the case of “R3GSPSDSSGTEEMEV [Akt2TG, Akt2 peptide with T at n+1 replaced by G]”, at recombinant CK2 α2β2, the “Effect of residue replacement in the Akt2 peptide on phosphorylation by CK2 (in words)” value (from here on “Effect of residue replacement”) is “comparable to that of the Akt1 peptide” and the “Phosphorylation by CK2” value was “+”.

Regarding R3GSPSDNSGAEEMEV [Akt1(wt)], on recombinant CK2 α2β2, the “Phosphorylation by CK2, time course (in words)” value was “good substrate” and the “Phosphorylation by CK2” value is listed as “+”.

Regarding “R3GSPSDNSTTEEMEV [Akt2N, Akt2 peptide with S at n-1 replaced by N]”, at recombinant CK2 α2β2, the “Effect of residue replacement” value is on record as “no beneficial effect” and the “Phosphorylation by CK2” value was “- (or not (-))”.

As for “R3GSPSDSSATEEMEV [Akt2TA, Akt2 peptide with T at n+1 replaced by A]”, the “Phosphorylation by CK2” value on recombinant CK2 α2β2 is recorded as “+”.

In the case of R3GSPSDSSTTEEMEV [Akt2(wt)], the “cpm detected in PLK3 assay” value in test [1] is recorded as 50000-150000 cpm. The “Phospho-aminoacid accounting for phosphorylation by CK2” value in the test with CK2 is given as “entirely accounted for by phospho-serine”. For the same substance, on recombinant CK2 α2β2, the “Phosphorylation by CK2, time course (in words)” value is reported as “negligible extent” and the “Phosphorylation by CK2” value is listed as “- (or not (-))”. The “drop in phosphorylation efficiency in comparison to the Akt1 peptide” value on recombinant CK2 α2β2 (from Km and Vmax of Fig 1B) was approximately 10 fold.

For the substance “R3GSPSDSSTAEEMEV [Akt2A, Akt2 peptide with T at n+2 replaced by A]”, on recombinant CK2 α2β2, the “Effect of residue replacement” value is “no beneficial effect” and the “Phosphorylation by CK2” value was “- (or not (-))”.

“R3GSPSDSSSTEEMEV [Akt2TS, Akt2 peptide with T at n+1 replaced by S]”: the “Phosphorylation by CK2” value at recombinant CK2 α2β2 is on record as “+”.

Take “R3GSPSDNSTAEEMEV [Akt1GT, Akt1 peptide with G at n+1 replaced by T]”: the “Phosphorylation by CK2” value on recombinant CK2 α2β2 is given as “- (or not (-))”.
